Assay results published in US11565003B2, “Mechanical opening of lipid bilayers by molecular nanomachines” (William Marsh Rice University, priority 2016, dated 2023).
Starred links: 1 amine or outer side, 2 acyl side, 3 side chain; linkers in the order of their positions; H or OH if unused. Positions of bridges follow the written chain, without caps; N, C: chain ends. Residues, ends and D or L forms follow the SMILES beside them. Chains are numbered I, II in the order given. X2 = C[C@@H]1Cc2ccc3ccccc3c2C1=C1c2cc(C#CCCn3cc(C(=O)[*:1])nn3)ccc2Sc2ccc(C#CCCn3cc(C(=O)[*:2])nn3)cc21

What was measured:
CHO cells = experiment: UV-activated nanomechanical necrosis, live cell confocal microscopy, CHO; assay type: cell-based, Chinese hamster; conditions: 355 nm UV; for % acceleration for full necrosis: versus UV upon blank cells
Method: (§1) Following the synthetic bilipid vesicle experiments, nanomechanical action upon live cells was studied using confocal microscopy aided by a super-resolution technique called Phase Modulation Nanoscopy. Applicants used two experimental methods. In the first method (Method A), the molecular motors were loaded into the cell media and the imaging was initiated within 5 minutes to 24 hours. In the second method, (Method B), the molecular motors were loaded into the cell media, incubated for 30 minutes to 24 hours, and then washed three times with fresh molecular motor-free media before imaging. […]
(§2) Microscopy cells were seeded in untreated iBibi 100 μL live cell channels and allowed to grow to 40% to 60% confluence, at 37° C. in 5% CO2. At this stage, the medium was replaced and cells were treated with the studied nanomachines and co-stains as appropriate, with 0.1% DMSO (as detailed above) present in the final imaging medium. For live cell imaging, DMEM/F12 media (10% FBS) lacking phenol red was used from this point onwards. Following incubation, where Method B was used, the channels were washed with live cell imaging media and imaged using a purpose build incubator housing the microscope maintaining 37° C., 5% CO2 and 10% humidity.
(§3) All live cell imaging experiments used either NIH 3T3 mouse skin fibroblast cells, PC-3 cells, a grade 3 human prostate adenocarcinoma, or Chinese hamster ovary cells (CHO). These are all well-studied cell lines with discrete morphological compositions. Each molecular machine was used as a stock solution at 0.10 to 1.00 μM with total dimethyl sulfoxide (DMSO) concentrations not exceeding 0.1% in the final cell media in order to avoid unwanted cell membrane permeabilization, the DMSO being required for solubility of the organic nanomachines. All loading experiments are carried out in a light-suppressed manner and the possibility of induced or accelerated uptake due to interaction between the molecular motors and the applied co-stain has been eliminated using a series of individual and reversed loading experiments.
(§4) All experimental imaging parameters (i.e., laser beam size, confocal pinhole size, laser intensity, line scanning speed, scanning area (field of view, FOV), and line averaging sequences) were kept constant throughout the experiments. The accuracy and errors associated with the establishment of accelerated necrosis are determined based on one dual channel imaging sequence, which takes 15 seconds in total. This imaging sequence has been carefully established using untreated live cells.
(§5) Steady state fluorescence images were recorded using a PhMoNa enhanced Leica SP5 II LSCM equipped with a HCX PL APO 63×/1.40 NA LambdaBlue Oil immersion objective. As an initial control experiment to establish the UV-induced cell toxicity threshold, while mitigating voxel exposure and ensuring sufficient laser dwell time, an imaging sequence has been established to monitor cell morphological and physiological changes as a function of time. All experiments used cell-line-determined culture medium containing 0.1% DMSO.
(§6) The applied 100 Hz detection sequence was based on a bidirectional dual-channel continuous scanning method where a minimalistic non-damaging visible laser light (458 nm, 0.2 mW) is used in conjunction with the above detailed UV exposure. This is set as a 2 line/scan accumulation parallel acquisition sequence that is recorded as a function of time. Studied channels correspond to transmission images and UV-induced mitochondrial auto-fluorescence detected at 460 to 550 nm. Applicants further confirmed that the effectiveness of monitoring the UV-activated nanomechanical action on live cells using a conventional CW mercury-arc excitation source equipped with an epi-fluorescence setup consisting of a Zeiss Axiovert 200M inverted microscope, as discussed in FIGS. 18A-C. […]

PC-3 cells [1] = experiment: 24 hours incubation without UV: proliferation and apoptosis (Annexin V, Image Cytometry); assay type: cell-based, human
Method: When PC-3 cells are loaded at 0.5 or 1.0 μM with 9 or 10, washed three times (Method B) or unwashed (Method A) after 24 hours of incubation, the cells visually appear without major signs of toxicity. However, the cells which had been incubated with 9 or 10 over 24 hours were not dividing as prolifically. The cultures appear to be populated ˜25% less in the presence of 9 and 20% of the cells in 10 compared to control untreated cells (FIGS. 12A-E).
In order to further investigate this point, these cells were collected via gentle centrifugation and re-suspended in fresh PBS and analyzed by Image Cytometry. Using Annexin V, these cells were all confirmed to show signs of apoptosis at 93±5%. This is in contrast to the remaining coverslip surface-bound cells that appear healthy.
These latter types of non-apoptotic cells show identical percentage of necrosis acceleration upon subsequent UV-activation of the cell-surface bound nanomachines compared to their shorter incubation time analogues. Thus, it appears that, upon 24 hour incubation, a noticeable amount of cells have nanomachines 9 and 10 either bound to vital cell membrane channels or transport proteins or they are internalized, subsequently shutting down some natural homeostatic mechanisms that leads to programmed cell death (FIGS. 12A-E). Furthermore, this is not the case with shorter incubation times regardless of whether Method A or B is used.

PC-3 cells [2] = experiment: Two-photon near-infra red activation, PI dye entry, PC-3; assay type: cell-based, human; conditions: PC-3, 1 μM, PI 200 nM
Method: Two-photon microscopy studies of NIH 3T3 cells were executed on a Nikon E600 upright confocal microscope coupled to a tuneable (710-950 nm Coherent MaiTai) multiphoton source operating at (20%) 240 mW power using a 166 lps scan speed and 128×128 pixel frame resolution for MP-illumination. Images (512×512 pixel, 166 lps) were recorded using a 543 nm (1 mW HeNe) laser combined with a 560 nm long-pass filter to record PI (200 nM) fluorescence and follow the onset of induced necrosis.
Two photon live cell microscopy studies were also executed on a Nikon E600 upright confocal microscope coupled to a tuneable (710-950 nm Coherent MaiTai) multiphoton source operating at (19.8%) 240 mW power at 720 nm using 166 lines/sec scan speed and 128×128 pixel frame resolution for MP-illumination. An oil immersion Nikon IR objective (×60/1.4 NA) was used. Images (512×512 pixel, 166 l/s) were recorded using a 543 nm (1 mW HeNe) laser combined with a 570 nm long-pass filter to record PI dyes (200 nM). Fluorescence was measured as 2 frame averaged images in order to follow the onset of induced necrosis. Necrosis times have been assigned to detectable PI signals in the nucleolus.

NIH 3T3 cells = experiment: UV-activated nanomechanical necrosis, live cell confocal microscopy, NIH 3T3; assay type: cell-based, mouse; conditions: for Time of Full Necrosis / Time of Initial Necrosis / % acceleration for full necrosis: 355 nm UV; for % acceleration for full necrosis: versus UV upon blank cells
Method: as §1, §2, §3, §4, §5, §6

[3] = NIH 3T3, Method B (washed three times)

Compound: CC(C)[C@H](NC(=O)[C@H](CCCNC(=N)N)NC(=O)[C@@H](NC(=O)[C@H](CC(N)=O)NC(=O)[C@H](CO)NC(=O)c1cn(CCC#Cc2ccc3c(c2)C(=C2c4c(ccc5ccccc45)C[C@H]2C)c2cc(C#CCCn4cc(C(=O)N[C@@H](CO)C(=O)N[C@@H](CC(N)=O)C(=O)N[C@H](C(=O)N[C@@H](CCCNC(=N)N)C(=O)N[C@H](C(=O)N[C@@H](C)C(=O)N5CCC[C@H]5C(=O)O)C(C)C)[C@@H](C)O)nn4)ccc2S3)nn1)[C@@H](C)O)C(=O)N[C@@H](C)C(=O)N1CCC[C@H]1C(=O)O [Compound 9] (I: SNTRVAP-OH / II: SNTRVAP-OH; linker I:N-II:N via X2)
- Time of Full Necrosis (CHO cells; Method A (no washing)): 585 s
- Time of Initial Necrosis (CHO cells; Method A (no washing)): 300 s
- % acceleration for full necrosis (CHO cells; Method A): 2.5%
- Time of Full Necrosis (CHO cells; Method B (washed three times)): 570 s
- Time of Initial Necrosis (CHO cells; Method B (washed three times)): 285 s
- % acceleration for full necrosis (CHO cells; Method B): 5%
- cultures populated less compared to control untreated cells (PC-3 cells [1]; PC-3, 0.5 or 1.0 μM, 24 hours of incubation, no UV): ~25%
- mobilized cells showing signs of apoptosis (Annexin V) (PC-3 cells [1]; PC-3, 24 hours incubation, cells collected from culture media): 93±5%
- PI dye entry upon two-photon near-infra red illumination (in words) (PC-3 cells [2]): resulting in Propidium Iodide (PI) dyes entering
- Time of Full Necrosis (NIH 3T3 cells; NIH 3T3, Method A (no washing)): 570 s
- Time of Initial Necrosis (NIH 3T3 cells; NIH 3T3, Method A (no washing)): 300 s
- % acceleration for full necrosis (NIH 3T3 cells; NIH 3T3, Method A): 5%
- Time of Full Necrosis (NIH 3T3 cells; [3]): 600 s
- Time of Initial Necrosis (NIH 3T3 cells; [3]): 300 s
- % acceleration for full necrosis (NIH 3T3 cells; NIH 3T3, Method B): 0%
- UV-accelerated nanomechanical necrosis after 24 hours incubation (in words) (NIH 3T3 cells; NIH 3T3, incubated 24 hours): no change in rates
